Here are results for three molecules from patent publication US20260365670A1, “EGFR INHIBITORS AND USES THEREOF” (DIZAL (JIANGSU) PHARMACEUTICAL CO., LTD., priority 2022, published 2026).

Read-outs that look alike come from different tables or passages of the source. A value given as a limit tells only on which side of the number the result lay.

One assay relates to PC-9. Put plainly: Cell proliferation assay, PC-9 cells (CellTiter-Glo, 72 hours). The assay is classed as cell-based. The conditions noted are these: Homo sapiens, PC-9, 72 h, PC9 cells, read-out: GI50 PC9. In a few lines: (§1)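 Ba/F3 cells carrying EGFR mutants (5000/well) or PC-9 cells (500/well) in RPMI1640 were dosed with compound series after overnight attachment and grown 72 h. Viability read by CellTiter-Glo, with day-0 counts subtracted; GI50 from curve fits of % proliferation versus DMSO control.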

The next assay deals with T1, EGFR Exon19Del/T790M (Homo sapiens, UniProt P00533, DEL746-750/T790M).
T1 construct: purchased Carna Bio
T1 sequence (P00533 with tags, fused parts or gaps DEL746-750/T790M limits assumed): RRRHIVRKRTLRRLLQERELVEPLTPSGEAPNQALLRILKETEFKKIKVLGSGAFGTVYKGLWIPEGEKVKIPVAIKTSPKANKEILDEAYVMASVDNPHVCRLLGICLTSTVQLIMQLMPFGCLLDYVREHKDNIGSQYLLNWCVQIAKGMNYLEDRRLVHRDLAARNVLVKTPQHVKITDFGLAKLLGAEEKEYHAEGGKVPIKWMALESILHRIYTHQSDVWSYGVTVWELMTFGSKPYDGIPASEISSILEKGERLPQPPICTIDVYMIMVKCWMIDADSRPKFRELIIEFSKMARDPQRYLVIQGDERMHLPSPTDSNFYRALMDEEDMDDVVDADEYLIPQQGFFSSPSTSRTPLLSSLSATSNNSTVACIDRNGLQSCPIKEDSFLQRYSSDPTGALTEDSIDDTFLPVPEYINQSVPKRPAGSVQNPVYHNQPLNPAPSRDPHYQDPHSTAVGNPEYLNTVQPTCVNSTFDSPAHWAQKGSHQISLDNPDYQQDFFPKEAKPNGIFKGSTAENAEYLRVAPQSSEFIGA
The experiment in a line: Inhibition of EGFR Exon19Del/T790M biochemical enzymatic activity (HTRF). The conditions noted are these: EGFR Del19-T790M, 1 mM ATP, 1 h, room temperature, read-out: IC50 (nM) @Del19-T790M. In a few lines:
(§2)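 Using a high ATP level (1 mM), wild-type and mutant EGFR enzymes were incubated 1 h at room temperature with inhibitor and 1 μM biotinylated TK substrate. Phosphorylation was quantified as the 665/615 nm HTRF ratio. IC50s were derived by logistic fitting.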

The subject of assay [1] is Ba/F3 cells expressing EGFR mutations. The experiment in a line: Cell proliferation assay, Ba/F3 cells expressing EGFR mutations (CellTiter-Glo, 72 hours). The assay is classed as cell-based. The conditions noted are these: Mus musculus, BaF3, 72 h. In a few lines: as §1
Another assay concerns the target T2, EGFR L858R/T790M (Homo sapiens, UniProt P00533, L858R/T790M).
T2 construct: purchased Carna Bio
The experiment in a line: Inhibition of EGFR L858R/T790M biochemical enzymatic activity (HTRF). The conditions noted are these: EGFR L858R-T790M, 1 mM ATP, 1 h, room temperature, read-out: IC50 (nM) @L858R-T790M. In a few lines: as §2

The target in assay [2] is T3, EGFR[T790M/C797S/d746-750] (Homo sapiens, UniProt P00533, C797S/DEL746-750/T790M).
T3 construct: purchased Carna Bio
T3 sequence (P00533 with tags, fused parts or gaps DEL746-750/T790M/C797S limits assumed): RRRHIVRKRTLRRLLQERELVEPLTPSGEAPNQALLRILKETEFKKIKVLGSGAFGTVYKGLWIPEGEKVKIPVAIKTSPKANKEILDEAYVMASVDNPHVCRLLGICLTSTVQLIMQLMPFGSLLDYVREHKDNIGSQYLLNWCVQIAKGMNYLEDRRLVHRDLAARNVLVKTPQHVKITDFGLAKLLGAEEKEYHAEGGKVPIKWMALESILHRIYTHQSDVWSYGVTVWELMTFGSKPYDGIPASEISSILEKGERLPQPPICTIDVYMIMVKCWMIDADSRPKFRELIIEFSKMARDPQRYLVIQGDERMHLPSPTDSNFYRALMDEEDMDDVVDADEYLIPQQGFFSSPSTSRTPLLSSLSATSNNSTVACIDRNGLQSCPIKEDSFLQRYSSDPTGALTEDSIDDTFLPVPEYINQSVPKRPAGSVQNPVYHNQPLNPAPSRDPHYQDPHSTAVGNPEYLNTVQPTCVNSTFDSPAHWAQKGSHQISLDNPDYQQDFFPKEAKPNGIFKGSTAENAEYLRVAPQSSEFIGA
The experiment in a line: Inhibition of EGFR[T790M/C797S/d746-750] biochemical enzymatic activity (HTRF). The conditions noted are these: EGFR T790M-C797S-Del19, 1 mM ATP, 1 h, room temperature, read-out: IC50 (nM) @T790M - C797S - Del19. In a few lines:
as §2

The target of the next assay is T4, EGFR[T790M/C797S/L858R] (Homo sapiens, UniProt P00533, C797S/L858R/T790M).
T4 construct: purchased Carna Bio
T4 sequence (P00533 25-1210 T790M/C797S/L858R): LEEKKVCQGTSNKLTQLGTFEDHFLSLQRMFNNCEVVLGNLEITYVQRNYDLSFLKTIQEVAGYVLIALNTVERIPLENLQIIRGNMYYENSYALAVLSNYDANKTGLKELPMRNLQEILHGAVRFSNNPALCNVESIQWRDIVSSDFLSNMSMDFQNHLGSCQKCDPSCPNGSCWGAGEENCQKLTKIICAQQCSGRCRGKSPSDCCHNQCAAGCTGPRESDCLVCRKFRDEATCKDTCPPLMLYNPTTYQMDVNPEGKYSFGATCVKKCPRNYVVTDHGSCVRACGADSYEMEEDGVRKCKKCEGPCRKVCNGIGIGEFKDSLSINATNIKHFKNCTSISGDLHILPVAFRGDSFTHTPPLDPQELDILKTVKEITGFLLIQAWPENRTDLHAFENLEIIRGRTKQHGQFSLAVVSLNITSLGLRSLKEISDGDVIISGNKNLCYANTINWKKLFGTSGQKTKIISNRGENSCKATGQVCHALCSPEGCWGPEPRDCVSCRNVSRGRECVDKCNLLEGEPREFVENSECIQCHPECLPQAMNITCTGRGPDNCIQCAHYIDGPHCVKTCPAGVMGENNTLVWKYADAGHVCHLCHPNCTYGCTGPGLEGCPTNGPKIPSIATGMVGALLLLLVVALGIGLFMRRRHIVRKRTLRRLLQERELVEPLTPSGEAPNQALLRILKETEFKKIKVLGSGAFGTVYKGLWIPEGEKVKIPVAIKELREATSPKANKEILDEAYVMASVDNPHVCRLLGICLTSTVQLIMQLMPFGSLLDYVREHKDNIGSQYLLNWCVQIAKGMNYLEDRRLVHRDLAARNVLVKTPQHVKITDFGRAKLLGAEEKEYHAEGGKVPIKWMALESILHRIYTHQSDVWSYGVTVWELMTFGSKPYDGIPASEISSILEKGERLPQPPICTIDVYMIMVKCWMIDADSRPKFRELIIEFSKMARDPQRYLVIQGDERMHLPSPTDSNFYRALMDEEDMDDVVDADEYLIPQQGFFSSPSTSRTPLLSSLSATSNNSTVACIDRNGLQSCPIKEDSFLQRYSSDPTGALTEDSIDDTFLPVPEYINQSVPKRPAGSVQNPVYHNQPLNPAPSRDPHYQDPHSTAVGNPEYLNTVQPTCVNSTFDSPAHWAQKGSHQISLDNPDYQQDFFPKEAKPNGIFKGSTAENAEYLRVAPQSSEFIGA
The experiment in a line: Inhibition of EGFR[T790M/C797S/L858R] biochemical enzymatic activity (HTRF). The conditions noted are these: EGFR T790M-C797S-L858R, 1 mM ATP, 1 h, room temperature, read-out: IC50 (nM) @T790M- C797S - L858R. In short, it runs like this: as §2

For a further assay, the target named is T5, EGFR Exon19Del (Homo sapiens, UniProt P00533, DEL746-750).
T5 construct: purchased Carna Bio
The experiment in a line: Inhibition of EGFR Exon19Del biochemical enzymatic activity (HTRF). The conditions noted are these: EGFR Del19, 1 mM ATP, 1 h, room temperature, read-out: IC50 @Del19. In short, it runs like this: as §2

For another assay, the target named is T6, EGFR (d746-750 C797S) (Homo sapiens, UniProt P00533, C797S/DEL746-750).
T6 construct: purchased signalchem
Put plainly: Inhibition of EGFR (d746-750 C797S) biochemical enzymatic activity (HTRF). The conditions noted are these: EGFR Del19-C797S, 1 mM ATP, 1 h, room temperature, read-out: IC50 (nM) @Del19-C797S. In short, it runs like this: as §2

A further assay relates to A-431. Put plainly: Cell proliferation assay, A-431 cells (GI50, Table 6). Type of assay: cell-based. The conditions noted are these: Homo sapiens, A-431, A-431 cells.
A further assay deals with T7, EGFR wild type (Homo sapiens, UniProt P00533).
T7 construct: purchased Carna Bio
T7 sequence (P00533 25-1210): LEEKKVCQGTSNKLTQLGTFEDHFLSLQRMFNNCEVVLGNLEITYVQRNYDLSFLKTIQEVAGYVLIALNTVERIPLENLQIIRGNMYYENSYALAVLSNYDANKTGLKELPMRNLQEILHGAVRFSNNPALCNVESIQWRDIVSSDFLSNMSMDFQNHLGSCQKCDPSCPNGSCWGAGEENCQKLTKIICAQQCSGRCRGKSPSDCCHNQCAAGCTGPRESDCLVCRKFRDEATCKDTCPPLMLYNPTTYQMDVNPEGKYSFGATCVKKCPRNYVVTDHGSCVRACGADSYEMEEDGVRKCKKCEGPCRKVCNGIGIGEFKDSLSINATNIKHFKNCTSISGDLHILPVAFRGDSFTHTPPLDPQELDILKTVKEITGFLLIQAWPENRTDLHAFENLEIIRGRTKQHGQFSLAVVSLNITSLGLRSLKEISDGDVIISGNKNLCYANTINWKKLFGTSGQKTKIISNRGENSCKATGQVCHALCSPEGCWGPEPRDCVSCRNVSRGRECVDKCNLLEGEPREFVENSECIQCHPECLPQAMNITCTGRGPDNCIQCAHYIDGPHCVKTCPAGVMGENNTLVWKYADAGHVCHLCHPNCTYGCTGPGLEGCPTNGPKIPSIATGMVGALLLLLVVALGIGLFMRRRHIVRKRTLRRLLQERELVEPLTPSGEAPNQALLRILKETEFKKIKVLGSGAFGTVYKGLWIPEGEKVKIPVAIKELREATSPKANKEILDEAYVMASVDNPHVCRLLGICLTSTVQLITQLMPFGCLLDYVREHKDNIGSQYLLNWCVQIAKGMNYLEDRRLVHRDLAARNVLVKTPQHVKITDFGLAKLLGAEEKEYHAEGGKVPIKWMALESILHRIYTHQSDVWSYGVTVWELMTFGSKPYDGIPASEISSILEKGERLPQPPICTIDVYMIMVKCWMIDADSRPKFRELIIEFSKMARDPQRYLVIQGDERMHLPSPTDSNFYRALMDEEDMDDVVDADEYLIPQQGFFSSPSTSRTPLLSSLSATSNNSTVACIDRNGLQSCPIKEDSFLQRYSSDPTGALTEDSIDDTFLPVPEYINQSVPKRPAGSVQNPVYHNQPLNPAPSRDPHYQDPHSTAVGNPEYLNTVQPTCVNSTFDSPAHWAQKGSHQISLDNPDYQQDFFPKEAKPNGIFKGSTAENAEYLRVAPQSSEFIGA
Put plainly: Inhibition of EGFR wild type biochemical enzymatic activity (HTRF). The conditions noted are these: EGFR WT, 1 mM ATP, 1 h, room temperature, read-out: IC50 (nM) @WT. In short, it runs like this:
as §2

For a further assay, the target named is T8, EGFR (C797S L858R) (Homo sapiens, UniProt P00533, C797S/L858R).
T8 construct: purchased signalchem
Put plainly: Inhibition of EGFR (C797S L858R) biochemical enzymatic activity (HTRF). The conditions noted are these: EGFR L858-C797S, 1 mM ATP, 1 h, room temperature, read-out: IC50 (nM) @L858-C797S. In a few lines:
as §2

The target in a further assay is T9, EGFR L858R (Homo sapiens, UniProt P00533, L858R).
T9 construct: purchased Carna Bio
T9 sequence (P00533 25-1210 L858R): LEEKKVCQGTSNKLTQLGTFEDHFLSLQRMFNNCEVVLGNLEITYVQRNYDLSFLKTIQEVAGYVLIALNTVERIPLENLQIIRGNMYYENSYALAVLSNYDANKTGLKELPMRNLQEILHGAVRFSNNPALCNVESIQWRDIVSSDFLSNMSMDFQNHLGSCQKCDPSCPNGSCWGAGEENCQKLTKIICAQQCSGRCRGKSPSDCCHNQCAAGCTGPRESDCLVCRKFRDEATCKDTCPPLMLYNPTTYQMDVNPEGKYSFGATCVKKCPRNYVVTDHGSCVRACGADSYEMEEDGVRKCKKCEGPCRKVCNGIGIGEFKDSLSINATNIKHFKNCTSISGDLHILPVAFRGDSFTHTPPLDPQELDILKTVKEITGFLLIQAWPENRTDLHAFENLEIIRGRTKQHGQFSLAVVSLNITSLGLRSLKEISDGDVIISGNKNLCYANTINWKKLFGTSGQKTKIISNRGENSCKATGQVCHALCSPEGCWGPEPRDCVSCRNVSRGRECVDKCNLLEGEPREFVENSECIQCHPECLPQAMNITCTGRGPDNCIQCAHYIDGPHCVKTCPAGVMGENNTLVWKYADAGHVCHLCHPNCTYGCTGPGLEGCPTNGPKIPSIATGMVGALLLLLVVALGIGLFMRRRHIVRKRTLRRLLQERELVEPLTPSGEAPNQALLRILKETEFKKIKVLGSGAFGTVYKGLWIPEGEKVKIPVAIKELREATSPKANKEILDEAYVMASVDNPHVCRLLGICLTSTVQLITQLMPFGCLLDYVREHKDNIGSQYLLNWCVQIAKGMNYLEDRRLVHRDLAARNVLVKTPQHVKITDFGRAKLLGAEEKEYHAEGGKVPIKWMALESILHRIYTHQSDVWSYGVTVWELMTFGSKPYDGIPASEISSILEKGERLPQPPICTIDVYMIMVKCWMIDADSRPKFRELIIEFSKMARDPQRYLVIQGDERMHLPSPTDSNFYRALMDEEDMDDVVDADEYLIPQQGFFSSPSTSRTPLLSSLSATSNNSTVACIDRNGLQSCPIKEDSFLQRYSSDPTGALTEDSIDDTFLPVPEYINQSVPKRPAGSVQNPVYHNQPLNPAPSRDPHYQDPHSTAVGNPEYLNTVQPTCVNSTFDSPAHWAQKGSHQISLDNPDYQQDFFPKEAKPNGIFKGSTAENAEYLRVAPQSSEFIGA
Put plainly: Inhibition of EGFR L858R biochemical enzymatic activity (HTRF). The conditions noted are these: 1 mM ATP, 1 h, room temperature, read-out: IC50 (nM) @L858R. In short, it runs like this:
as §2

[3] abbreviates: BaF3 cells, EGFR DEL19 - C797S, read-out: GI50 DEL19 - C797S/BaF3.
Setting [4] is: BaF3 cells, EGFR DEL19 - T790-C797S, read-out: GI50 DEL19 - T790-C797S/BaF3.
Setting [5] is: BaF3 cells, EGFR L858R - C797S, read-out: GI50 L858R - C797S/BaF3.
[6] abbreviates: BaF3 cells, EGFR L858R - T790-C797S, read-out: GI50 L858R - T790-C797S/BaF3.
The mark [7] stands for this setting: BaF3 cells, EGFR L858R, read-out: GI50 L858R/BaF3.
The mark [8] stands for this setting: EGFR DEL19 - T790M, read-out: GI50 DEL19 - T790M.
Setting [9] is: BaF3 cells, EGFR L858R - T790M, read-out: GI50 L858R - T790M/BaF3.

For `Cc1cc2cc(n1)-c1cnn(C)c1OCCN1CCCCC(C1)n1c(nc3ccccc31)NC2=O` (centres unmarked) [Example B4, 15,21-Dimethyl-23-oxa-2,9,11,16,20,21,26-heptaazahexacyclo[24.4.1.1^{13,17}.0^{2,10}.0^{3,8}.0^{18,22}]dotriaconta-3,5,7,9,13(32),14,16,18(22),19-nonaen-12-one], the GI50 in the assay with PC-9 was found to be 292 nM; in assay [1] (setting [3]) it was 125 nM; in assay [1] (setting [4]), 61 nM; in assay [1] (setting [5]) it was 342 nM; in [1] (setting [6]), 42 nM; in assay [1] (setting [7]) it was 612 nM. In addition, the GI50 in [1] (setting [8]) was 57 nM; in the assay on A-431, 3530 nM. Moreover, the IC50 amounted to 33 nM on EGFR Exon19Del/T790M; 847 nM at EGFR L858R/T790M; 16 nM in assay [2]; 532 nM at EGFR[T790M/C797S/L858R]; 592 nM on EGFR Exon19Del; 243 nM on EGFR (d746-750 C797S). The figures for the IC50 on EGFR wild type, at EGFR (C797S L858R) and at EGFR L858R were above 5000 nM, 3630 nM and above 5000 nM, respectively.
Take `Cc1cc2cc(n1)-c1cnn(C)c1OCCN(CC(F)F)CCn1c(nc3ccccc31)NC2=O` [Example B5]: the GI50 was 115 nM in the assay with PC-9; 62 nM in assay [1] (setting [3]); 31 nM in assay [1] (setting [4]); 66 nM in assay [1] (setting [5]); 9.1 nM in assay [1] (setting [6]); 7 nM in [1] (setting [9]). The GI50 was 144 nM in assay [1] (setting [7]), 41 nM in assay [1] (setting [8]) and 2820 nM with A-431. The IC50 turned out to be 5.1 nM on EGFR Exon19Del/T790M; 13 nM on EGFR L858R/T790M; 4.1 nM in assay [2]; 7.1 nM at EGFR[T790M/C797S/L858R]; 108 nM on EGFR Exon19Del; 48 nM on EGFR (d746-750 C797S). Also, the IC50 is above 5000 nM on EGFR wild type, 195 nM on EGFR (C797S L858R) and 440 nM at EGFR L858R.
`Cc1cc2cc(n1)-c1cnn(C3CC3)c1OCCN(CC(F)(F)F)CCn1c(nc3ccccc31)NC2=O` [Example B6, 5-cyclopropyl-26-methyl-10-(2,2,2-trifluoroethyl)-7-oxa-4,5,10,13,20,22,27-heptaazapentacyclo[22.3.1.0^{2,6}.0^{13,21}.0^{14,19}]octacosa-1(27),2(6),3,14,16,18,20,24(28),25-nonaen-23-one]: the GI50 amounted to 145 nM with PC-9; 62 nM in assay [1] (setting [3]); 42 nM in assay [1] (setting [4]); 69 nM in assay [1] (setting [5]); 7.7 nM in assay [1] (setting [6]); 16 nM in [1] (setting [9]). Further, the GI50 in assay [1] (setting [7]) stood at 35 nM; in [1] (setting [8]), 48 nM; in the assay on A-431, 2830 nM. Also, the IC50 at EGFR Exon19Del/T790M amounted to 5.2 nM; on EGFR L858R/T790M it was 9 nM; in assay [2], 3.6 nM; on EGFR[T790M/C797S/L858R], 3.1 nM; on EGFR Exon19Del, 197 nM; on EGFR (d746-750 C797S), 112 nM. Further, the IC50 was above 5000 nM on EGFR wild type, 390 nM on EGFR (C797S L858R) and 1090 nM on EGFR L858R.
